# Counter-ions that a name gives are not always drawn.
# What was measured:
# [1] = target: T1, recombinant human β tryptase (Homo sapiens, UniProt Q15661); assay: β-Tryptase inhibitory potency, chromogenic enzyme assay (S2366 substrate); type: biochemical
# T1 construct: host or cells: yeast cells
# Method: Tryptase inhibition activity is confirmed using either isolated human lung tryptase or recombinant human β tryptase expressed in yeast cells. Essentially equivalent results are obtained using isolated native enzyme or the expressed enzyme. The assay procedure employs a 96 well microplate (Costar 3590) using L-pyroglutamyl-L-prolyl-L-arginine-para-nitroanilide (S2366: Quadratech) as substrate (essentially as described by McEuen et. al. Biochem Pharm, 1996, 52, pages 331-340). Assays are performed at room temperature using 0.5mM substrate (2×Km) and the microplate is read on a microplate reader (Beckman Biomek Plate reader) at 405 nm wavelength.
# Materials and Methods for Tryptase Primary Screen (Chromogenic assay)
# • S2366 (Stock solutions of 2.5 mM).
# • Purified recombinant beta Tryptase Stocks of 310 μg/mL. Protocol (Single Point Determination) • Add 60 μL of diluted substrate (final concentration of 500 μM in assay buffer) to each well • Add compound in duplicates, final concentration of 20 μM, volume 20 μL • Add enzyme at a final concentration of 50 ng/mL in a volume of 20 μL • Total volume for each well is 100 μL • Agitate briefly to mix and incubate at room temp in the dark for 30 minutes • Read absorbencies at […]
# [2] = test system: Airway Hyperresponsiveness (AHR) to histamine in sensitized guinea pigs; assay: Guinea pig model of airway hyperreactivity (AHR to histamine after ovalbumin sensitization and challenge); type: in vivo
# Method: Sensitization and drug treatment: Male Hartley guinea pigs (225-250 g) are sensitized with ovalbumin (0.5 mL of 1% solution, i.p. and s.c.). On day 4, animals received a booster injection (i.p.) of 0.5 mL of 1% ovalbumin. On day 21, animals are orally dosed (2mL/kg) with either vehicle (0.5% methylcellulose/0.2% Tween 80) or test compound 2 hours prior to antigen challenge. Thirty minutes before antigen challenge the animals are also injected with mepyramine (30 mg/kg, i.p.) to prevent anaphylactic collapse. Animals are then exposed for 5 minutes to an aerosol of either saline (control animals) or 1% ovalbumin using a deVilbiss Ultraneb nebulizer.
# AHR measurement: Eighteen to twenty four hours after challenge, animals are anesthetized with a combination of ketamine (133 mg/kg) and xylazine (24 mg/kg) given intramuscularly, surgically prepared and then mounted in a whole body plethysmograph for lung function measurement. Animals are connected to Ugo-Basile ventilators delivering a tidal volume of 1 mL/100 g at a rate of 50 breaths/minute via a tracheal cannula. The jugular vein is also cannulated for histamine challenge. A water filled esophageal cannula is placed such that transpulmonary pressure is recordable. Transpulmonary pressure is measured as the difference between the tracheal and esophageal cannulas using a differential pressure transducer. The volume, airflow, and transpulmonary pressure signals are monitored using a pulmonary analysis system (Buxco XA software) and used to calculate pulmonary resistance (cm H2O/mL/s) and dynamic compliance (mL/cm H2O). Airway resistance and dynamic compliance are computed on a breath by breath basis. Histamine is administered intravenously and reactivity to increasing concentrations (0.3-20 μg/kg) assessed. ED50's are estimated from the area under the curve (AUC) values derived from the individual histamine dose-response curves.
# [3] = Plasma, lung and BAL drug levels in guinea pigs; type: in vivo, guinea pig
# Method: Plasma and Lung Drug Levels Plasma and lung compound levels are determined in satellite groups. Three to four guinea pigs from each of the experimental-drug treatment groups are used for the determination of drug levels. At the indicated time point, (either 2- or 24 hours after dosing), animals are euthanized, and 1 mL blood samples are obtained by cardiac puncture and collected into heparin-coated syringes containing 20 μL (per 1 mL of blood) of a 5 mM hydralazine solution. Plasma is separated from the cellular component of the blood by centrifugation, and stored at −20° C. until assayed. Lung samples are dissected free of connective tissues, blotted dry, weighed and stored in 20 mL vials containing 5 mL of a 5 mM hydralazine solution in saline. The frozen plasma samples are then transferred on dry ice to the Pilot PK group for compound levels determination.
# [4] = oral route, sensitized guinea pigs
# [5] = 2 hours after dosing, 1 mg/kg, p.o.
# T1 sequence (Q15661 31-275): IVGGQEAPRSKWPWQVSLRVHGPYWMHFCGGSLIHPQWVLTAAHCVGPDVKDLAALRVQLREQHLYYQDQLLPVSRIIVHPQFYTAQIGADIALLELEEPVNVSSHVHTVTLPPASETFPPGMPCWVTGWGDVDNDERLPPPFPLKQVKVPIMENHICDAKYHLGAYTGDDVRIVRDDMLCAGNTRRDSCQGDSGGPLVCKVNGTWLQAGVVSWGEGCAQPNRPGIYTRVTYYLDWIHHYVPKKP
compound,measurement,setting,value
"CCCOc1sc(C(=O)N2CCC(c3cc(CN)ccc3F)CC2)c(C)c1Br [Compound I, [4-(5-aminomethyl-2-fluoro-phenyl)-piperidin-1-yl]-(4-bromo-3-methyl-5-propoxy-thiophen-2-yl)-methanone hydrochloride]",IC50,"[1]; 0.5 mM substrate S2366 (2×Km), room temperature",76 nM
same,Ki,[1]; calculated from IC50: Ki=IC50/(1+[Substrate]/Km),15 nM
same,ED50,"[2]; Cavia porcellus, dosed 24 hours prior to antigen challenge, read-out: average ED50, duration of action",0.4 mg/kg
same,"ED50, protection against antigen-stimulated AHR to histamine, as measured by airway resistance and dynamic lung compliance",[2]; oral dosing 2 hours prior to ovalbumin challenge,0.1 mg/kg
same,effect on basal airway resistance,[2]; [4],no effect
same,effect on basal dynamic lung compliance,[2]; [4],no effect
same,compound level in lung,[3]; [5],appreciable amount
same,compound level in plasma,[3]; [5],detected at a much lower level
same,compound level in bronchoalveolar lavage fluid (BAL),"[3]; 2 hours after dosing, 1 mg/kg, p.o., not taking into account dilution factor for BAL",appreciable amount
same,compound level in lung,[3]; 24 hours after dosing,dose-dependent appreciable amount
same,compound level in plasma,[3]; 24 hours after dosing,no plasma could be detected

# From patent publication US7482459B2, “[4-(5-aminomethyl-2-fluoro-phenyl)-piperidin-1-yl]-(4-bromo-3-methyl-5-propoxy-thiophen-2-yl)-methanone hydrochloride as an inhibitor of mast cell tryptase” (Aventis Pharmaceuticals Inc., priority 2004, dated 2009)
